Data from patent US20230085307A1, “PYRIDAZINONE COMPOUND AND HERBICIDE” (NISSAN CHEMICAL CORPORATION, priority 2019, published 2023).

How the values were obtained:
[1] = system: wild oat; test: Test Example 4: herbicidal effect by soil treatment (Table 19, symbol I); format: in vivo, wild oat (Avena fatua); settings: amount of applied herbicide 320 g/ha
Procedure, shortened: (§1)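 Applied as a water-diluted emulsion, the compound was sprayed onto soil covering newly sown seeds. Evaluation came three weeks after application, in a greenhouse held at 25° C. to 30° C.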

[2] = system: windgrass; test: Test Example 5: herbicidal effect by foliage application, plastic box (Table 20, symbol L); format: in vivo, windgrass (Apera spica-venti); settings: foliage application, 320 g/ha
Procedure, shortened: (§2)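 Sow seeds spot-wise in sterilized diluvial soil; cover with ~1.5 cm soil. Grow 14 days in greenhouse, 25° C. to 30° C. Spray foliage with emulsion diluted to predetermined amount. Rate effect after 3 weeks.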

[3] = system: green foxtail; test: Test Example 5: herbicidal effect by foliage application, plastic box (Table 20, symbol G); format: in vivo, green foxtail (Setaria viridis); settings: foliage application, 320 g/ha
Procedure, shortened: as §2

[4] = system: velvetleaf; test: Test Example 4: herbicidal effect by soil treatment (Table 19, symbol M); format: in vivo, velvetleaf (Abutilon theophrasti); settings: amount of applied herbicide 320 g/ha
Procedure, shortened: as §1

[5] = system: Italian ryegrass; test: Test Example 5: herbicidal effect by foliage application, plastic box (Table 20, symbol K); format: in vivo, Italian ryegrass (Lolium multiflorum); settings: foliage application, 320 g/ha
Procedure, shortened: as §2

[6] = system: redroot pigweed; test: Test Example 4: herbicidal effect by soil treatment (Table 19, symbol N); format: in vivo, redroot pigweed (Amaranthus retroflexus); settings: amount of applied herbicide 320 g/ha
Procedure, shortened: as §1

[7] = system: blackgrass; test: Test Example 4: herbicidal effect by soil treatment (Table 19, symbol J); format: in vivo, blackgrass (Alopecurus myosuroides); settings: amount of applied herbicide 320 g/ha
Procedure, shortened: as §1

[8] = system: redroot pigweed; test: Test Example 5: herbicidal effect by foliage application, plastic box (Table 20, symbol N); format: in vivo, redroot pigweed (Amaranthus retroflexus); settings: foliage application, 320 g/ha, evaluated three weeks after application
Procedure, shortened: as §2

[9] = system: velvetleaf; test: Test Example 5: herbicidal effect by foliage application, plastic box (Table 20, symbol M); format: in vivo, velvetleaf (Abutilon theophrasti); settings: foliage application, 320 g/ha
Procedure, shortened: as §2

[10] = system: persian speedwell; test: Test Example 4: herbicidal effect by soil treatment (Table 19, symbol R); format: in vivo, Persian speedwell (Veronica persica); settings: amount of applied herbicide 320 g/ha
Procedure, shortened: as §1

[11] = system: blackgrass; test: Test Example 5: herbicidal effect by foliage application, plastic box (Table 20, symbol J); format: in vivo, blackgrass (Alopecurus myosuroides); settings: foliage application, 320 g/ha
Procedure, shortened: as §2

[12] = system: chickweed; test: Test Example 4: herbicidal effect by soil treatment (Table 19, symbol P); format: in vivo, common chickweed (Stellaria media); settings: amount of applied herbicide 320 g/ha
Procedure, shortened: as §1

[13] = system: southern crabgrass; test: Test Example 4: herbicidal effect by soil treatment (Table 19, symbol F); format: in vivo, southern crabgrass (Digitaria ciliaris); settings: amount of applied herbicide 320 g/ha
Procedure, shortened: as §1

[14] = system: false cleavers; test: Test Example 5: herbicidal effect by foliage application, plastic box (Table 20, symbol Q); format: in vivo, false cleavers (Galium spurium); settings: foliage application, 320 g/ha
Procedure, shortened: as §2

[15] = system: barnyard grass; test: Test Example 4: herbicidal effect by soil treatment (Table 19, symbol H); format: in vivo, barnyard grass (Echinochloa crus-galli); settings: amount of applied herbicide 320 g/ha
Procedure, shortened: as §1

[16] = system: barnyard grass; test: Test Example 5: herbicidal effect by foliage application, plastic box (Table 20, symbol H); format: in vivo, barnyard grass (Echinochloa crus-galli); settings: foliage application, 320 g/ha
Procedure, shortened: as §2

[17] = system: southern crabgrass; test: Test Example 5: herbicidal effect by foliage application, plastic box (Table 20, symbol F); format: in vivo, southern crabgrass (Digitaria ciliaris); settings: foliage application, 320 g/ha
Procedure, shortened: as §2

[18] = system: wild oat; test: Test Example 5: herbicidal effect by foliage application, plastic box (Table 20, symbol I); format: in vivo, wild oat (Avena fatua); settings: foliage application, 320 g/ha
Procedure, shortened: as §2

[19] = system: Italian ryegrass; test: Test Example 4: herbicidal effect by soil treatment (Table 19, symbol K); format: in vivo, Italian ryegrass (Lolium multiflorum); settings: amount of applied herbicide 320 g/ha
Procedure, shortened: as §1

[20] = system: lambsquarters; test: Test Example 5: herbicidal effect by foliage application, plastic box (Table 20, symbol O); format: in vivo, lambsquarters (Chenopodium album); settings: foliage application, 320 g/ha
Procedure, shortened: as §2

[21] = system: persian speedwell; test: Test Example 5: herbicidal effect by foliage application, plastic box (Table 20, symbol R); format: in vivo, Persian speedwell (Veronica persica); settings: foliage application, 320 g/ha
Procedure, shortened: as §2

[22] = system: green foxtail; test: Test Example 4: herbicidal effect by soil treatment (Table 19, symbol G); format: in vivo, green foxtail (Setaria viridis); settings: amount of applied herbicide 320 g/ha
Procedure, shortened: as §1

[23] = system: lambsquarters; test: Test Example 4: herbicidal effect by soil treatment (Table 19, symbol O); format: in vivo, lambsquarters (Chenopodium album); settings: amount of applied herbicide 320 g/ha
Procedure, shortened: as §1

[24] = system: windgrass; test: Test Example 4: herbicidal effect by soil treatment (Table 19, symbol L); format: in vivo, windgrass (Apera spica-venti); settings: amount of applied herbicide 320 g/ha
Procedure, shortened: as §1

[25] = system: chickweed; test: Test Example 5: herbicidal effect by foliage application, plastic box (Table 20, symbol P); format: in vivo, common chickweed (Stellaria media); settings: foliage application, 320 g/ha, evaluated three weeks after application
Procedure, shortened: as §2

[26] = system: rice flat sedge; test: Test Example 3: herbicidal effect by foliage application, Wagner pot (Table 18, symbol E); format: in vivo, rice flat sedge (Cyperus iria); settings: 320 g/ha
Procedure, shortened: (§3)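 Plants were sown in alluvial soil held under 0.1–0.5 cm standing water and grown 14 days in a greenhouse at 25–30 °C. An emulsifiable formulation, water-diluted to the set dose, was then sprayed onto the foliage, and effects were scored three weeks later using previously defined criteria.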

[27] = system: barnyard grass; test: Test Example 3: herbicidal effect by foliage application, Wagner pot (Table 18, symbol H); format: in vivo, barnyard grass (Echinochloa crus-galli); settings: 320 g/ha
Procedure, shortened: as §3

[28] = system: Chinese sprangletop; test: Test Example 3: herbicidal effect by foliage application, Wagner pot (Table 18, symbol D); format: in vivo, chinese sprangletop (Leptochloa chinensis); settings: 320 g/ha
Procedure, shortened: as §3

[29] = evaluated three weeks after application

COc1cc(F)ccc1-c1sc2ccc(-c3ccoc3)cc2c1-c1c(O)c(C)nn(C)c1=O [2-170]
I: wild oat, herbicidal effect rating [1]: 0 (Herbicidal rate of 5% or less (almost no effect))
herbicidal effect on L: windgrass (criteria 0-5) [2, 29]: 0 (Herbicidal rate of 5% or less (almost no effect))
herbicidal effect on G: green foxtail (criteria 0-5) [3, 29]: 0 (Herbicidal rate of 5% or less (almost no effect))
M: velvetleaf, herbicidal effect rating [4]: 0 (Herbicidal rate of 5% or less (almost no effect))
herbicidal effect on K: Italian ryegrass (criteria 0-5) [5, 29]: 0 (Herbicidal rate of 5% or less (almost no effect))
N: redroot pigweed, herbicidal effect rating [6]: 0 (Herbicidal rate of 5% or less (almost no effect))
J: blackgrass, herbicidal effect rating [7]: 0 (Herbicidal rate of 5% or less (almost no effect))
herbicidal effect on N: redroot pigweed (criteria 0-5) [8]: 3 (Herbicidal rate of 40% or more and less than 70%)
herbicidal effect on M: velvetleaf (criteria 0-5) [9, 29]: 3 (Herbicidal rate of 40% or more and less than 70%)
R: persian speedwell, herbicidal effect rating [10]: 0 (Herbicidal rate of 5% or less (almost no effect))
herbicidal effect on J: blackgrass (criteria 0-5) [11, 29]: 0 (Herbicidal rate of 5% or less (almost no effect))
P: chickweed, herbicidal effect rating [12]: 0 (Herbicidal rate of 5% or less (almost no effect))
F: southern crabgrass, herbicidal effect rating [13]: 3 (Herbicidal rate of 40% or more and less than 70%)
herbicidal effect on Q: false cleavers (criteria 0-5) [14, 29]: 0 (Herbicidal rate of 5% or less (almost no effect))
H: barnyard grass, herbicidal effect rating [15]: 0 (Herbicidal rate of 5% or less (almost no effect))
herbicidal effect on H: barnyard grass (criteria 0-5) [16, 29]: 0 (Herbicidal rate of 5% or less (almost no effect))
herbicidal effect on F: southern crabgrass (criteria 0-5) [17, 29]: 1 (Herbicidal rate of 5% or more and less than 20%)
herbicidal effect on I: wild oat (criteria 0-5) [18, 29]: 0 (Herbicidal rate of 5% or less (almost no effect))
K: Italian ryegrass, herbicidal effect rating [19]: 0 (Herbicidal rate of 5% or less (almost no effect))
herbicidal effect on O: lambsquarters (criteria 0-5) [20, 29]: 3 (Herbicidal rate of 40% or more and less than 70%)
herbicidal effect on R: persian speedwell (criteria 0-5) [21, 29]: 1 (Herbicidal rate of 5% or more and less than 20%)
G: green foxtail, herbicidal effect rating [22]: 0 (Herbicidal rate of 5% or less (almost no effect))
O: lambsquarters, herbicidal effect rating [23]: 2 (Herbicidal rate of 20% or more and less than 40%)
L: windgrass, herbicidal effect rating [24]: 0 (Herbicidal rate of 5% or less (almost no effect))
herbicidal effect on P: chickweed (criteria 0-5) [25]: 5 (Herbicidal rate of 90% or more (almost completely withered))

CCOc1cc2sc(-c3ccccc3OC)c(-c3c(O)c(C)nn(C)c3=O)c2cc1F [5-065]
I: wild oat, herbicidal effect grade [1]: 1 (Herbicidal rate of 5% or more and less than 20%)
herbicidal effect on windgrass (L) ([2]; three weeks after application): 5 (Herbicidal rate of 90% or more (almost completely withered))
herbicidal effect on green foxtail (G) ([3]; three weeks after application): 5 (Herbicidal rate of 90% or more (almost completely withered))
M: velvetleaf, herbicidal effect grade [4]: 2 (Herbicidal rate of 20% or more and less than 40%)
herbicidal effect on rice flat sedge (E) [26]: 4 (Herbicidal rate of 70% or more and less than 90%)
herbicidal effect on Italian ryegrass (K) ([5]; three weeks after application): 4 (Herbicidal rate of 70% or more and less than 90%)
N: redroot pigweed, herbicidal effect grade [6]: 5 (Herbicidal rate of 90% or more (almost completely withered))
J: blackgrass, herbicidal effect grade [7]: 3 (Herbicidal rate of 40% or more and less than 70%)
herbicidal effect on velvetleaf (M) ([9]; three weeks after application): 5 (Herbicidal rate of 90% or more (almost completely withered))
R: persian speedwell, herbicidal effect grade [10]: 5 (Herbicidal rate of 90% or more (almost completely withered))
herbicidal effect on barnyard grass (H) [27]: 4 (Herbicidal rate of 70% or more and less than 90%)
herbicidal effect on blackgrass (J) ([11]; three weeks after application): 4 (Herbicidal rate of 70% or more and less than 90%)
herbicidal effect on Chinese sprangletop (D) [28]: 3 (Herbicidal rate of 40% or more and less than 70%)
P: chickweed, herbicidal effect grade [12]: 5 (Herbicidal rate of 90% or more (almost completely withered))
F: southern crabgrass, herbicidal effect grade [13]: 0 (Herbicidal rate of 5% or less (almost no effect))
herbicidal effect on false cleavers (Q) ([14]; three weeks after application): 5 (Herbicidal rate of 90% or more (almost completely withered))
H: barnyard grass, herbicidal effect grade [15]: 4 (Herbicidal rate of 70% or more and less than 90%)
herbicidal effect on barnyard grass (H) ([16]; three weeks after application): 5 (Herbicidal rate of 90% or more (almost completely withered))
herbicidal effect on southern crabgrass (F) ([17]; three weeks after application): 4 (Herbicidal rate of 70% or more and less than 90%)
herbicidal effect on wild oat (I) ([18]; three weeks after application): 4 (Herbicidal rate of 70% or more and less than 90%)
K: Italian ryegrass, herbicidal effect grade [19]: 3 (Herbicidal rate of 40% or more and less than 70%)
herbicidal effect on lambsquarters (O) ([20]; three weeks after application): 5 (Herbicidal rate of 90% or more (almost completely withered))
herbicidal effect on persian speedwell (R) ([21]; three weeks after application): 5 (Herbicidal rate of 90% or more (almost completely withered))
G: green foxtail, herbicidal effect grade [22]: 4 (Herbicidal rate of 70% or more and less than 90%)
O: lambsquarters, herbicidal effect grade [23]: 5 (Herbicidal rate of 90% or more (almost completely withered))
L: windgrass, herbicidal effect grade [24]: 3 (Herbicidal rate of 40% or more and less than 70%)
